Measured values reported in article PMC3947174 (Structure (London, England : 1993), 2013).
Ends that are not written are not given here. Ahx = NCCCCCC(=O)O

Experiments:
N2P2 (NHERF2 PDZ2) = N2P2 (NHERF2 PDZ2) (Homo sapiens, UniProt Q15599); experiment: FP displacement binding to NHERF2 PDZ2
N2P1 (NHERF2 PDZ1) = N2P1 (NHERF2 PDZ1) (Homo sapiens, UniProt Q15599); experiment: FP displacement binding to NHERF2 PDZ1
N1P2 (NHERF1 PDZ2) = biological target: T1, N1P2 (NHERF1 PDZ2) (Homo sapiens, UniProt O14745); experiment: FP displacement binding to NHERF1 PDZ2
T1 sequence (O14745 154-234 limits assumed): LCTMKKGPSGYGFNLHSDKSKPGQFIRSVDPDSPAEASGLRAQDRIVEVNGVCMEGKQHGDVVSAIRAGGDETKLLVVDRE

CALP (CAL PDZ domain) [1] = biological target: T2, CALP (CAL PDZ domain) (Homo sapiens, UniProt Q9HD26); experiment: FP competition; assay type: binding; details: reporter F*-iCAL36, PDZ ~[…] Kd, triplicate experiments
N1P1 (NHERF1 PDZ1) = biological target: T3, N1P1 (NHERF1 PDZ1) (Homo sapiens, UniProt O14745); experiment: FP displacement binding to NHERF1 PDZ1
T3 sequence (O14745 14-94 limits assumed): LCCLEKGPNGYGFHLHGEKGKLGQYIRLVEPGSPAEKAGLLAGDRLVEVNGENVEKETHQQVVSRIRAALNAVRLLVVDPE

iCAL36 = experiment: fluorescence polarization competition; details: cited from earlier work
iCAL36L = experiment: fluorescence polarization competition; details: cited from earlier work
CFTR (Homo sapiens) = experiment: fluorescence polarization competition; details: cited from earlier work
CALP (CAL PDZ domain) [2] = biological target: T2, CALP (CAL PDZ domain); details: K*-designed hexamer; ref Roberts et al., 2012; cited from earlier work
iCAL36VQD-3 = biological target: T4, iCAL36VQD-3; experiment: fluorescence polarization competition
T4 chain: ANSRVQDSII

iCAL36QDTRL = biological target: T5, iCAL36QDTRL; experiment: fluorescence polarization competition
T5 chain: ANSRWQDTRL

iCAL36TRL = biological target: T6, iCAL36TRL; experiment: fluorescence polarization competition
T6 chain: ANSRWPTTRL

iCAL36Q-4 = biological target: T7, iCAL36Q-4; experiment: fluorescence polarization competition
T7 chain: ANSRWQTSII

F*-CFTR6 = biological target: T8, F*-CFTR6 (Homo sapiens); experiment: fluorescence polarization
T8 chain: {Fluorescein-Ahx}-VQDTRL

CC(C)C[C@H](NC(=O)[C@H](CCCNC(=N)N)NC(=O)[C@@H](NC(=O)[C@@H](NC(=O)[C@H](CCC(N)=O)NC(=O)[C@@H](NC(=O)[C@H](CCC(=O)O)NC(=O)[C@H](CCC(=O)O)NC(=O)[C@H](CCC(=O)O)NC(=O)[C@@H](N)[C@@H](C)O)C(C)C)[C@@H](C)O)[C@@H](C)O)C(=O)O [CFTRT^-3]
Ki (N2P2 (NHERF2 PDZ2)): 0.45 ± 0.25 µM
Ki (N2P1 (NHERF2 PDZ1)): 1.3 ± 0.4 µM
Ki (N1P2 (NHERF1 PDZ2)): 4.6 ± 1.6 µM
Ki (CALP (CAL PDZ domain) [1]): 18 ± 5.5 µM
Ki (N1P1 (NHERF1 PDZ1)): 0.76 ± 0.51 µM

CC[C@H](C)[C@H](NC(=O)[C@@H](NC(=O)[C@H](CO)NC(=O)[C@@H](NC(=O)[C@H](CCC(N)=O)NC(=O)[C@H](Cc1c[nH]c2ccccc12)NC(=O)[C@H](CCCNC(=N)N)NC(=O)[C@H](CO)NC(=O)[C@H](CC(N)=O)NC(=O)[C@H](C)N)[C@@H](C)O)[C@@H](C)CC)C(=O)O [iCAL36Q^-4]
Ki (N2P1 (NHERF2 PDZ1)): 300 ± 100 µM
Ki (N1P2 (NHERF1 PDZ2)): > 1000 µM
Ki (N1P1 (NHERF1 PDZ1)): 280 ± 100 µM

ANSRVQDSII [iCAL36VQD^-3]
Ki (N2P1 (NHERF2 PDZ1)): > 1000 µM
Ki (N1P2 (NHERF1 PDZ2)): > 1000 µM
Ki (CALP (CAL PDZ domain) [1]): > 1000 µM
Ki (N1P1 (NHERF1 PDZ1)): > 1000 µM

ANSRVQDTRL [iCAL36VQDTRL]
Ki (N2P2 (NHERF2 PDZ2)): 0.94 ± 0.42 µM
Ki (N2P1 (NHERF2 PDZ1)): 3.8 ± 1.4 µM
Ki (N1P2 (NHERF1 PDZ2)): 6.5 ± 2.3 µM
Ki (N1P1 (NHERF1 PDZ1)): 2.5 ± 0.3 µM

ANSRWPTTRL [iCAL36TRL]
Ki (N2P2 (NHERF2 PDZ2)): 16.5 ± 3.9 µM
Ki (N2P1 (NHERF2 PDZ1)): 8.7 ± 3.1 µM
Ki (N1P1 (NHERF1 PDZ1)): 8 ± 1.4 µM

ANSRWQDTRL [iCAL36QDTRL]
Ki (N2P2 (NHERF2 PDZ2)): 1.1 ± 0.6 µM
Ki (N2P1 (NHERF2 PDZ1)): 3.1 ± 1.4 µM
Ki (N1P2 (NHERF1 PDZ2)): 6.7 ± 2.4 µM
Ki (N1P1 (NHERF1 PDZ1)): 1.5 ± 0.2 µM

N1P1 PDZ1 (from UniProt O14745)
Ki (iCAL36): > 1000 µM

N1P2 PDZ2 (from UniProt O14745)
Ki (iCAL36L): > 1000 µM
Ki (CFTR (Homo sapiens)): 1.8 µM
Ki (iCAL36): > 1000 µM

N2P1 PDZ1 (from UniProt Q15599)
Ki (iCAL36): > 1000 µM

N2P2 PDZ2 (from UniProt Q15599)
Ki (iCAL36): > 1000 µM

WQVTRV [kCAL01]
CALP affinity in words (CALP (CAL PDZ domain) [2]): highest affinity observed to date for a hexameric sequence

B1: N2P1 PDZ1 (protein)
chain: RPRLCRLVRGEQGYGFHLHGEKGRRGQFIRRVEPGSPAEAAALRAGDRLVEVNGVNVEGETHHQVVQRIKAVEGQTRLLVVDQETD
Ki (iCAL36VQD-3): > 1000 µM
Ki (iCAL36QDTRL): 3.1 µM
Ki (iCAL36TRL): 8.7 µM
Ki (iCAL36Q-4): 300 µM

B2: N2P2 PDZ2 (protein)
chain: LRPRLCHLRKGPQGYGFNLHSDKSRPGQYIRSVDPGSPAARSGLRAQDRLIEVNGQNVEGLRHAEVVASIKAREDEARLLVVDPETD
Ki (iCAL36QDTRL): 1.1 µM
Ki (iCAL36TRL): 16.5 µM
Ki (iCAL36Q-4): 450 µM

B3: N1P2 PDZ2 (protein)
chain: RPRLCTMKKGPSGYGFNLHSDKSKPGQFIRSVDPDSPAEASGLRAQDRIVEVNGVCMEGKQHGDVVSAIRAGGDETKLLVVDRETDE
Ki (iCAL36VQD-3): > 1000 µM
Ki (iCAL36TRL): 110 µM
Ki (iCAL36Q-4): > 1000 µM

B4: N1P1 PDZ1 (protein)
chain: LPRLCCLEKGPNGYGFHLHGEKGKLGQYIRLVEPGSPAEKAGLLAGDRLVEVNGENVEKETHQQVVSRIRAALNAVRLLVVDPETDE
Kd (F*-CFTR6): 0.37 µM
Ki (iCAL36VQD-3): > 1000 µM
Ki (iCAL36TRL): 8 µM
Ki (iCAL36Q-4): 280 µM
